In publication PMC5364125 (EJNMMI Research, 2017):
Several values for one entry are separate records, joined by “and”; a condition that tells them apart may be missing. Equal entries are not always repeated. Where two headings read alike, the source gives them in different places.

Tests used:
TSPO [1] = settings: cited from earlier work
TSPO [2] = experiment: Dynamic brain PET, V T by two-tissue compartment model; assay type: in vivo, human
Experimental: (§1) PET scanning was performed using a Discovery PET/computed tomography (CT) 710 scanner (GE Healthcare, Milwaukee, WI) in 3D mode. This scanner has an axial field of view of 15.7 cm, a spatial resolution of 4.5 mm full width at half maximum (FWHM), and a Z-axis resolution of 4.8 mm FWHM. We acquired 47 slices. […] Arterial blood (0.5 mL each) was sampled at 10, 20, 30, 40, 50, 60, 70, 80, 90, 100, 110, 120, 135, 150, and 180 s, as well as at 5, 7, 10, 15, 20, 30, 40, 50, 60, 75, and 90 min. The whole blood and separated plasma were weighed, and radioactivity was measured with a NaI (Tl) well scintillation counter (BeWell Model-QS03 F/B; Molecular Imaging Labo, Suita, Japan). To analyze the labeled metabolites, 1.5 mL additional blood was obtained at 3, 10, 20, 30, 40, and 60 min. After the PET scan, urine was obtained from each subject, and radioactivity was measured.
The dynamic images were post-smoothed with a 4-mm FWHM Gaussian filter. The data were reconstructed in 128 × 128 × 47 voxels, and the voxel size was 2 × 2 × 3.27 mm. Partially overlapping circular regions of interests (ROIs) that were 10 mm in diameter were placed on the frontal, temporal, parietal, occipital, and cerebellar cortices, thalamus, putamen, and head of the caudate nucleus with reference to the co-registered MRI. TACs for these ROIs were calculated as becquerel per milliliter or as standardized uptake value (SUV): (activity/ml tissue)/(injected activity/g body weight). […] The goodness of fit by the two-model analysis was evaluated using AIC.

[3] = HPLC metabolite analysis of plasma and urine; assay type: in vivo, human
Experimental: as §1

[4] = From the text: The protocol for investigating radiation dosimetry in human subjects using whole-body imaging was essentially the same as that reported previously.
Whole-body PET/CT scans were obtained using a Discovery 710 PET/CT scanner (GE Healthcare) in 3D mode. LD-CT was used for attenuation correction of the PET emission scan. […] Then, 128-min scans (18 frames, 13 bed positions per frame, overlap of 23 of 47 slices per bed, 15 s/bed × four frames, 30 s/bed × 12 frames, and 60 s/bed × two frames) from the top of the head to mid-thigh were performed. Images were reconstructed using a 3D-ordered subset expectation maximization algorithm (subset, 24; iteration, 2) with a 6.4-mm Gaussian filter.
ROIs were manually placed over […] that could be identified on PET or LD-CT: adrenals, brain, gallbladder, small intestine, stomach, heart wall, kidneys, liver, lungs, pancreas, bone marrow (thoracic and lumbar vertebrae), spleen, testes, thymus, thyroid, and urinary bladder. The decay-uncorrected and decay-corrected TACs of organs were calculated as the percent injected dose (%ID) per milliliter and the %ID per organ. The volume of bone marrow, in which only part of the organ could be measured, was substituted by the volume that was calculated from the mass of red marrow in the adult male phantom (1.12 kg for 73.7 kg of body weight) adjusted by the subject’s body weight and 1.04 g/mL as the specific gravity. The normalized number of disintegrations (MBq-h/MBq administered) for each source organ is equal to the area under the time course of decay-uncorrected curve (%ID/mL) multiplied by the volume of the organ ROI. The area under the time course curve was calculated by summing the area from time zero to the endpoint of the scan and the area from the endpoint of the scan to infinity. The former area was calculated by trapezoidal integration. The latter area was calculated by integration of radioactive decay from the endpoint.
The absorbed doses in 25 target organs of the adult male phantom were estimated from the normalized number of disintegrations of source organs by implementing the Medical Internal Radiation Dose method using OLINDA/EXM (Vanderbilt University). The effective dose was also calculated by OLINDA/EXM using the methodology described in International Commission on Radiological Protection Publication 60 [40].

TSPO [5] = tested on: TSPO; design: method as in PMID 25616581; settings: 6-hydroxydopamine-injured striatum; cited from earlier work
TSPO [6] = tested on: TSPO; design: method as in PMID 25771904; settings: herpes encephalitis rat model; cited from earlier work
[7] = estimated from murine distribution data; cited from earlier work
TSPO [8] = settings: human subjects; cited from earlier work
[9] = two-tissue compartment model, typical subjects n = 4

CCN(CC)C(=O)Cc1c(-c2ccc(OCCF)cc2)nn2c(C)cc(C)nc12 [DPA-714]
relative TSPO binding affinity to (R)-PK11195 (TSPO [1]): 1.3 fold

COc1ccccc1CN(C(C)=O)c1cnccc1Oc1ccccc1 [PBR28]
relative TSPO binding affinity to (R)-PK11195 (TSPO [1]): 2–5 folds

CCCN(CCC)C(=O)Cc1c(-c2ccc(O[11CH3])cc2)nc2c(Cl)cc(Cl)cn12 [[^11C]CB184, N,N-di-n-propyl-2-[2-(4-[^11C]methoxyphenyl)-6,8-dichloroimidazol[1,2-a]pyridine-3-yl]acetamide]
time of peak radioactivity in all gray matter regions (TSPO [2]; after intravenous injection, typical subjects n = 4): about 5 min
V T values relative to those of (R)-[^11C]PK11195 (TSPO [2]; comparison with ref 15 values): 10 times
V T caudate (TSPO [2]; [9]): 3.2 ± 0.1 mL/cm^3
V T cerebellum (TSPO [2]; [9]): 4.4 ± 0.2 mL/cm^3
V T frontal cortex (TSPO [2]; [9]): 4.0 ± 0.2 mL/cm^3
V T occipital cortex (TSPO [2]; [9]): 4.3 ± 0.2 mL/cm^3 and 4.3 ± 0.5 mL/cm^3
V T parietal cortex (TSPO [2]; [9]): 3.9 ± 0.3 mL/cm^3
V T putamen (TSPO [2]; [9]): 4.0 ± 0.2 mL/cm^3
V T temporal cortex (TSPO [2]; [9]): 3.9 ± 0.4 mL/cm^3
V T thalamus (TSPO [2]; [9]): 5.1 ± 0.4 mL/cm^3
Percentage of radioactivity in plasma ([3]; 3 min after intravenous injection of [^11C]CB184, n = 5): 96.1 ± 2.7%
Percentage of radioactivity in plasma ([3]; 10 min after intravenous injection of [^11C]CB184, n = 5): 83.8 ± 8.9%
Percentage of radioactivity in plasma ([3]; 20 min after intravenous injection of [^11C]CB184, n = 5): 61.6 ± 8.0%
Percentage of radioactivity in plasma ([3]; 30 min after intravenous injection of [^11C]CB184, n = 5): 52.9 ± 4.9%
Percentage of radioactivity in plasma ([3]; 40 min after intravenous injection of [^11C]CB184, n = 5): 47.0 ± 5.0%
parent radioligand in voided urine ([3]; HPLC of voided urine): not detected
broad hydrophilic metabolites in urine ([3]; HPLC of voided urine, n = 3): 99.4% ± 0.6
total injected radioactivity recovered in urine ([3]; approximately 100 min post-injection): 0.3%
radioactivity voided into urine, of the injected activity ([3]; at 111 ± 17 min, n = 8): 0.3% ± 0.0
radioactivity voided into urine, of the injected activity ([4]; at 132 ± 0 min, n = 3): 0.3% ± 0
lungs radioactivity, initial time point ([4]; at 3.3 min, one subject): 25 %ID
lungs uptake ([4]; first frame): 25 % injected activity
Absorbed dose, Adrenals ([4]; healthy male subjects n = 3): 4.6 ± 0.9 μGy/MBq
Absorbed dose, Brain ([4]; healthy male subjects n = 3): 4.0 ± 0.3 μGy/MBq
Absorbed dose, Breasts ([4]; healthy male subjects n = 3): 2.2 ± 0.0 μGy/MBq
Absorbed dose, Gallbladder wall ([4]; healthy male subjects n = 3): 5.4 ± 0.4 μGy/MBq
Absorbed dose, Heart wall ([4]; healthy male subjects n = 3): 12.8 ± 0.5 μGy/MBq
Absorbed dose, Kidneys ([4]; healthy male subjects n = 3): 21.0 ± 0.5 μGy/MBq
Absorbed dose, Liver ([4]; healthy male subjects n = 3): 8.3 ± 0.9 μGy/MBq
Absorbed dose, Lower large intestine wall ([4]; healthy male subjects n = 3): 2.3 ± 0.1 μGy/MBq
Absorbed dose, Lungs ([4]; healthy male subjects n = 3): 16.8 ± 2.7 μGy/MBq
Absorbed dose, Muscle ([4]; healthy male subjects n = 3): 2.2 ± 0.1 μGy/MBq
Absorbed dose, Osteogenic cells ([4]; healthy male subjects n = 3): 3.6 ± 0.1 μGy/MBq
Absorbed dose, Ovaries ([4]; healthy male subjects n = 3): 2.5 ± 0.1 μGy/MBq
Absorbed dose, Pancreas ([4]; healthy male subjects n = 3): 16.5 ± 2.2 μGy/MBq
Absorbed dose, Red marrow ([4]; healthy male subjects n = 3): 3.2 ± 0.1 μGy/MBq
Absorbed dose, Skin ([4]; healthy male subjects n = 3): 1.7 ± 0.1 μGy/MBq
Absorbed dose, Small intestine ([4]; healthy male subjects n = 3): 5.4 ± 0.9 μGy/MBq
Absorbed dose, Spleen ([4]; healthy male subjects n = 3): 16.6 ± 6.6 μGy/MBq
Absorbed dose, Stomach wall ([4]; healthy male subjects n = 3): 4.5 ± 0.9 μGy/MBq
Absorbed dose, Testes ([4]; healthy male subjects n = 3): 3.6 ± 0.7 μGy/MBq
Absorbed dose, Thymus ([4]; healthy male subjects n = 3): 2.1 ± 0.0 μGy/MBq
Absorbed dose, Thyroid ([4]; healthy male subjects n = 3): 12.0 ± 3.9 μGy/MBq
Absorbed dose, Total body ([4]; healthy male subjects n = 3): 2.8 ± 0.0 μGy/MBq
Absorbed dose, Upper large intestine wall ([4]; healthy male subjects n = 3): 2.8 ± 0.1 μGy/MBq
Absorbed dose, Urinary bladder wall ([4]; healthy male subjects n = 3): 2.1 ± 0.1 μGy/MBq
Absorbed dose, Uterus ([4]; healthy male subjects n = 3): 2.5 ± 0.1 μGy/MBq
Effective dose ([4]; healthy male subjects n = 3): 5.9 ± 0.6 μSv/MBq
lungs uptake ([4]; last frame): 4.2 % injected activity
Normalized number of disintegrations, Adrenals ([4]; mean ± SD, n = 3): 1.3E-04 ± 5.7E-05 (9.5E-05 – 2.0E-04) MBq-h/MBq administered
Normalized number of disintegrations, Brain ([4]; mean ± SD, n = 3): 1.6E-02 ± 1.3E-03 (1.5E-02 – 1.7E-02) MBq-h/MBq administered
Normalized number of disintegrations, Gallbladder contents ([4]; mean ± SD, n = 3): 8.6E-04 ± 2.3E-04 (7.1E-04 – 1.1E-03) MBq-h/MBq administered
Normalized number of disintegrations, Heart wall ([4]; mean ± SD, n = 3): 1.3E-02 ± 6.2E-04 (1.3E-02 – 1.4E-02) MBq-h/MBq administered
Normalized number of disintegrations, Kidneys ([4]; mean ± SD, n = 3): 2.2E-02 ± 4.7E-04 (2.2E-02 – 2.2E-02) MBq-h/MBq administered
Normalized number of disintegrations, Liver ([4]; mean ± SD, n = 3): 4.2E-02 ± 5.4E-03 (3.8E-02 – 4.8E-02) MBq-h/MBq administered
Normalized number of disintegrations, Lungs ([4]; mean ± SD, n = 3): 6.2E-02 ± 1.1E-02 (5.1E-02 – 7.2E-02) MBq-h/MBq administered
Normalized number of disintegrations, Pancreas ([4]; mean ± SD, n = 3): 5.2E-03 ± 7.6E-04 (4.5E-03 – 6.0E-03) MBq-h/MBq administered
Normalized number of disintegrations, Red marrow ([4]; mean ± SD, n = 3): 1.0E-02 ± 1.7E-03 (8.8E-03 – 1.2E-02) MBq-h/MBq administered
Normalized number of disintegrations, Remainder ([4]; mean ± SD, n = 3): 2.9E-01 ± 2.0E-02 (2.8E-01 – 3.2E-01) MBq-h/MBq administered
Normalized number of disintegrations, Small intestine ([4]; mean ± SD, n = 3): 1.0E-02 ± 2.9E-03 (6.9E-03 – 1.3E-02) MBq-h/MBq administered
Normalized number of disintegrations, Spleen ([4]; mean ± SD, n = 3): 1.0E-02 ± 4.5E-03 (4.9E-03 – 1.3E-02) MBq-h/MBq administered
Normalized number of disintegrations, Stomach ([4]; mean ± SD, n = 3): 3.2E-03 ± 1.7E-03 (2.1E-03 – 5.2E-03) MBq-h/MBq administered
Normalized number of disintegrations, Testes ([4]; mean ± SD, n = 3): 4.3E-04 ± 1.1E-04 (3.1E-04 – 5.0E-04) MBq-h/MBq administered
Normalized number of disintegrations, Thymus ([4]; mean ± SD, n = 3): 3.8E-05 ± 1.8E-06 (3.7E-05 – 4.1E-05) MBq-h/MBq administered
Normalized number of disintegrations, Thyroid ([4]; mean ± SD, n = 3): 9.4E-04 ± 3.4E-04 (6.3E-04 – 1.3E-03) MBq-h/MBq administered
Normalized number of disintegrations, Urinary bladder contents ([4]; mean ± SD, n = 3): 9.8E-05 ± 3.7E-05 (5.5E-05 – 1.2E-04) MBq-h/MBq administered
time of peak radioactivity in liver ([4]; whole-body PET): 20 min
regional uptake into inflamed areas compared with (R)-[^11C]PK11195 (TSPO [5]): comparable
regional uptake into inflamed areas compared with (R)-[^11C]PK11195 (TSPO [6]): higher
organ with highest radiation-absorbed dose [7]: highest in the lung

CCN(CC)C(=O)Cc1c(-c2ccc(O[11CH3])cc2)nn2c(C)cc(C)nc12 [[^11C]DPA-713]
V T caudate (TSPO [8]): 3.1 ± 0.6
V T cerebellum (TSPO [8]): 3.9 ± 0.9
V T frontal cortex (TSPO [8]): 4.1 ± 0.8
V T parietal cortex (TSPO [8]): 3.7 ± 0.7
V T putamen (TSPO [8]): 3.5 ± 0.6
V T thalamus (TSPO [8]): 4.7 ± 0.9
